From the supplement of paper PMC8882468

Tests used:
Assay in all cases: CTG-3D luminescence at 96 h relative to day-0 seeding control (ratio to day 0); higher = more growth / less cytotoxicity; PDxO 3D drug screen (set 2), 96 h, CTG-3D normalised to day-0 seeding control.
[1] = test system: HCI-011.E2 (organoid from an ER-positive breast cancer xenograft)
[2] = test system: HCI-002 (organoid from a triple-negative breast cancer xenograft)
[3] = test system: HCI-016 (organoid from a triple-negative breast cancer xenograft)
[4] = test system: HCI-024 (organoid from a breast cancer xenograft)
[5] = test system: HCI-027 (organoid from a triple-negative breast cancer xenograft)
[6] = test system: HCI-005.E2 (organoid from a breast cancer xenograft with a HER2-positive history)

CO[C@H]1C[C@@H]2CC[C@@H](C)[C@@](O)(O2)C(=O)C(=O)N2CCCC[C@H]2C(=O)O[C@H]([C@H](C)C[C@@H]2CC[C@@H](OCCO)[C@H](OC)C2)CC(=O)[C@H](C)/C=C(\C)[C@@H](O)[C@@H](OC)C(=O)[C@H](C)C[C@H](C)/C=C/C=C/C=C/1C [everolimus]
CTG-3D luminescence at 96 h
Conditions | 12.5 pM | 0.00025 µM | 0.005 µM | 0.1 µM | 1 µM | 10 µM | 100 µM | 625 fM
[1] | 0.746 | 0.907 | 0.684 | 0.675 | 0.247 | 0.327 | -4.7e-05 | 1.14
[6] | 1.05 | 1.43 | 1.45 | 1.18 | 0.769 | 0.653 | -0.000603 | 1.6

CTG-3D luminescence at 96 h
Conditions | 12.5 pM | 0.00025 µM | 0.005 µM | 0.1 µM | 1 µM | 10 µM | 100 µM | 625 fM
[1], days in culture: 74 | 2.42 | 2.16 | 1.14 | 0.719 | 0.223 | 0.141 | -0.0134 | 2.48
[2], days in culture: 127 | 1.87 | 2.27 | 2.16 | 2.43 | 2.17 | 2.2 | -0.00603 | 2.25
[2], days in culture: 155 | 3.94 | 3.58 | 4.06 | 4.09 | 2.96 | 2.78 | -0.00382 | 3.53
[2], days in culture: 168 | 3.61 | 3.15 | 3.32 | 2.37 | 2.67 | 2.73 | -0.000729 | 3.88
[3], days in culture: 305 | 1.91 | 2.37 | 1.91 | 2.63 | 1.49 | 1.46 | -0.0112 | 3.94
[3], days in culture: 327 | 0.724 | 1 | 1.4 | 1.68 | 0.673 | 1.5 | -0.00208 | 0.809
[3], days in culture: 341 | 1.86 | 1.39 | 1.69 | 1.34 | 1.18 | 1.47 | -0.00301 | 2.31
[3], days in culture: 397 | 2.02 | 1.53 | 1.5 | 1.31 | 0.567 | 0.757 | -0.000194 | 2.23
[4], days in culture: 202 | 0.906 | 1.18 | 0.737 | 1.7 | 1.12 | 1.74 | 0.00395 | 1.12
[4], days in culture: 231 | 0.783 | 1.17 | 0.961 | 1.01 | 0.971 | 1.11 | 0.000185 | 0.943
[4], days in culture: 254 | 2.18 | 0.836 | 1.02 | 1.31 | 1.11 | 1.02 | 0.00153 | 2.4
[5], days in culture: 145 | 1.16 | 1.53 | 1.5 | 1.39 | 1.19 | 0.742 | -0.00159 | 1.87
[5], days in culture: 158 | 1.27 | 1.84 | 2.74 | 2.29 | 2.53 | 0.866 | -0.00155 | 5.49
[5], days in culture: 164 | 2.66 | 1.52 | 1.32 | 1.43 | 0.817 | 0.404 | 0.000466 | 2.04
[5], days in culture: 176 | 2.43 | 2.12 | 1.35 | 1.31 | 1.44 | 0.309 | 0.000718 | 2.75
[5], days in culture: 186 | 1.24 | 1.55 | 2.18 | 1.05 | 0.291 | 0.288 | 0.00707 | 3.1

CS(=O)(=O)CCNCc1ccc(-c2ccc3ncnc(Nc4ccc(OCc5cccc(F)c5)c(Cl)c4)c3c2)o1 [lapatinib]
CTG-3D luminescence at 96 h
Conditions | 12.5 pM | 0.00025 µM | 0.005 µM | 0.1 µM | 1 µM | 10 µM | 100 µM | 625 fM
[1] | 1.6 | 1.63 | 1.26 | 1.72 | 1.57 | 0.982 | 0.0218 | 2.23
[6] | 1.84 | 2.04 | 2.54 | 2.55 | 2.58 | 0.551 | 0.00117 | 2.11

CTG-3D luminescence at 96 h
Conditions | 12.5 pM | 0.00025 µM | 0.005 µM | 0.1 µM | 1 µM | 10 µM | 100 µM | 625 fM
[1], days in culture: 74 | 2.75 | 2.14 | 2.07 | 2.34 | 1.66 | 0.607 | -0.00505 | 2.76
[2], days in culture: 127 | 2.38 | 2.9 | 2.7 | 3.41 | 2.39 | 1.07 | 0.00596 | 2.75
[2], days in culture: 155 | 5.69 | 4.91 | 5.49 | 7.04 | 4.12 | 0.801 | -0.00284 | 4.59
[2], days in culture: 168 | 3.63 | 3.77 | 3.93 | 3.54 | 3.53 | 1.01 | -0.0013 | 3.8
[3], days in culture: 305 | 2.19 | 2.44 | 2.88 | 3.72 | 1.92 | 0.286 | -0.00685 | 4
[3], days in culture: 327 | 1.07 | 0.931 | 1.47 | 1.74 | 1.12 | 0.284 | 0.000753 | 2.05
[3], days in culture: 341 | 2.29 | 1.62 | 2.18 | 1.86 | 1.6 | 0.474 | -0.00181 | 2.42
[3], days in culture: 397 | 1.92 | 2.19 | 2.02 | 2.38 | 1.32 | 0.254 | -0.000202 | 2.47
[4], days in culture: 202 | 1.02 | 1.45 | 1.36 | 0.838 | 0.917 | 0.832 | 0.0105 | 1.54
[4], days in culture: 231 | 0.876 | 1.18 | 1.07 | 1.57 | 1.44 | 0.512 | 0.00851 | 1.39
[4], days in culture: 254 | 1.47 | 0.96 | 1.64 | 2.25 | 1.02 | 0.584 | 0.0095 | 1.76
[5], days in culture: 145 | 1.6 | 2.25 | 1.81 | 1.29 | 0.739 | 0.0785 | 0.00359 | 2.05
[5], days in culture: 158 | 1.68 | 2.65 | 3.39 | 2.02 | 2.72 | 0.902 | 0.00689 | 5.17
[5], days in culture: 164 | 2.91 | 1.7 | 1.91 | 1.36 | 1.57 | 0.126 | 0.00219 | 1.64
[5], days in culture: 176 | 4.02 | 2.45 | 1.33 | 2.41 | 1.57 | 0.0427 | 0.00427 | 1.78
[5], days in culture: 186 | 1.46 | 2.11 | 2.88 | 2.74 | 0.49 | 0.0763 | 0.00176 | 2.77

O=C(c1cc(Cc2n[nH]c(=O)c3ccccc23)ccc1F)N1CCN(C(=O)C2CC2)CC1 [olaparib]
CTG-3D luminescence at 96 h
Conditions | 12.5 pM | 0.00025 µM | 0.005 µM | 0.1 µM | 1 µM | 10 µM | 100 µM | 625 fM
[1] | 1.58 | 1.55 | 1.41 | 1.95 | 1.6 | 1.14 | 0.266 | 2.1
[6] | 1.62 | 2.3 | 2.07 | 2.39 | 2.1 | 1.27 | 0.485 | 2.24

CTG-3D luminescence at 96 h
Conditions | 12.5 pM | 0.00025 µM | 0.005 µM | 0.1 µM | 1 µM | 10 µM | 100 µM | 625 fM
[1], days in culture: 74 | 2.53 | 2.44 | 2.19 | 2.22 | 1.57 | 0.94 | 0.157 | 2.66
[2], days in culture: 127 | 2.26 | 2.88 | 2.92 | 2.97 | 2.45 | 2.59 | 2.23 | 2.54
[2], days in culture: 155 | 4.7 | 4.7 | 5.6 | 6.16 | 4.47 | 2.8 | 2.34 | 4.33
[2], days in culture: 168 | 3.4 | 3.26 | 4.03 | 3.35 | 3.14 | 2.04 | 1.7 | 3.55
[3], days in culture: 305 | 2.92 | 2.24 | 2.09 | 3.71 | 1.96 | 1.22 | 0.878 | 3.99
[3], days in culture: 327 | 1.25 | 0.765 | 1.45 | 1.31 | 1.34 | 1.59 | 1.23 | 1.74
[3], days in culture: 341 | 1.92 | 1.78 | 2.18 | 2.46 | 1.62 | 1.79 | 0.982 | 2.44
[3], days in culture: 397 | 1.5 | 2.56 | 1.17 | 1.75 | 2.07 | 1.74 | 0.249 | 2.79
[4], days in culture: 202 | 0.819 | 0.984 | 0.907 | 1.28 | 0.775 | 1.01 | 0.38 | 1.05
[4], days in culture: 231 | 0.787 | 0.983 | 0.972 | 1.27 | 1.78 | 1.27 | 0.836 | 1.4
[4], days in culture: 254 | 1.65 | 1.41 | 1.28 | 1.24 | 1.88 | 1.07 | 0.671 | 1.54
[5], days in culture: 145 | 1.79 | 3.31 | 2.66 | 1.56 | 1.71 | 2.13 | 0.976 | 1.89
[5], days in culture: 158 | 1.27 | 3.16 | 2.16 | 2.6 | 1.87 | 3.12 | 1.79 | 3.17
[5], days in culture: 164 | 4.1 | 1.37 | 2.13 | 2.08 | 1.58 | 0.874 | 0.555 | 2.58
[5], days in culture: 176 | 3.94 | 1.97 | 1.54 | 1.61 | 2.6 | 0.771 | 0.452 | 1.65
[5], days in culture: 186 | 0.87 | 1.38 | 2.3 | 3.57 | 1.26 | 1.58 | 0.34 | 3.34
